The text below walks through data of article PMC5913751 (Peptides, 2018).

In one series the test system is E.coli. Particulars: cited from earlier work.
The next series deals with S.aureus. The note with it: cited from earlier work.
The next series has as its system Bacilius subtilis. Particulars: cited from earlier work.
A further series concerns sheep erythrocytes. Description: Hemolysis assay. Format: cell-based. Particulars: sheep erythrocytes in PBS, 37°C 18–24 hours, absorbance 567 nm.
A further series deals with P.aeruginosa. The note with it: cited from earlier work.
Series [1] has as its system gram-negative bacteria, mostly E.coli and P. aeruginosa. The note with it: range stated jointly; ref Table 5.0 ([28], [30]–[32]); cited from earlier work.
A further series relates to R. solani Khun. Particulars: against R. solani Khun; ref [34]; cited from earlier work.
Another series deals with Fungus. Particulars: cited from earlier work.

Read-outs that look alike come from different tables or passages of the source. Where no end group is shown, it is not given here.

Sapecin: the “MIC values E.coli” value in the series with E.coli (ref [36]) is >78.0 µg/mL. Moreover, in the series on S.aureus (ref [36]), the “MIC values S.aureus” value was 5.0 µg/mL. Also, in the series on Bacilius subtilis (ref [36]), the “MIC values Bacilius subtilis” value was 20 to 39 µg/mL.
`CC[C@H](C)[C@H](NC(=O)CN)C(=O)NCC(=O)N[C@@H](C)C(=O)N[C@H](C(=O)N[C@@H](CC(C)C)C(=O)N[C@@H](CCCCN)C(=O)N[C@H](C(=O)N[C@@H](CC(C)C)C(=O)N[C@H](C(=O)N[C@H](C(=O)NCC(=O)N[C@@H](CC(C)C)C(=O)N1CCC[C@H]1C(=O)N[C@@H](C)C(=O)N[C@@H](CC(C)C)C(=O)N[C@H](C(=O)N[C@@H](CO)C(=O)N[C@@H](Cc1c[nH]c2ccccc12)C(=O)N[C@H](C(=O)N[C@@H](CCCCN)C(=O)N[C@@H](CCCNC(=N)N)C(=O)N[C@@H](CCCCN)C(=O)N[C@@H](CCCNC(=N)N)C(=O)N[C@@H](CCC(N)=O)C(=O)N[C@@H](CCC(N)=O)C(N)=O)[C@@H](C)CC)[C@@H](C)CC)[C@@H](C)O)[C@@H](C)O)C(C)C)C(C)C` [Melittin]: the “concentration at which RBCs are lysed” value in the series on sheep erythrocytes is ≥ 12500 ng/mL.
Consider “Cecropin B (KWKVFKKIEKMGRNIRNGIVKAGPAIAVLGEAKAL; ends and bridges not checked; UniProt P01508 27-61, looked up)”, for which the results for the “MIC values E.coli” value in the series with E.coli (ref [28]), in the series on E.coli (ref [30]) and with E.coli (ref [31]) were 2.5 µg/mL, 2 µg/mL and 16 µg/mL, respectively. Also, the “MIC values S.aureus” value in the series with S.aureus (ref [31]) is >128 µg/mL. Besides, the “MIC values P.aeruginosa” value in the series with P.aeruginosa (ref [28]) is 2.5 µg/mL; in the series with P.aeruginosa (ref [30]), >100 µg/mL. In series [1], the “MIC range against different strains of gram-negative bacteria” value (shortened to “MIC range against different strains”) was 2 to 20 µg/mL.
As to Cecropin P1, in the series with E.coli (ref [32]), the “MIC values E.coli” value is 0.12 to 4 µg/mL. In the series on P.aeruginosa (ref [32]), the “MIC values P.aeruginosa” value was 4 to 64 µg/mL. For the same molecule, in series [1], the “MIC range against different strains” value was 2 to 20 µg/mL.
Regarding “Cecropin A (KWKLFKKIEKVGQNIRDGIIKAGPAVAVVGQATQIAK; ends and bridges not checked; UniProt P01507 27-63, looked up)”, the “MIC values E.coli” value in the series on E.coli (ref [28]) is 2.5 µg/mL. Further, in the series on P.aeruginosa (ref [28]), the “MIC values P.aeruginosa” value is 2.5 µg/mL. Also, in series [1], the “MIC range against different strains” value was 2 to 20 µg/mL.
With Trx-stomoxynZH1, the “MIC values E.coli” value in the series on E.coli (ref [34]) was 15 to 30 µg/mL. Further, the “MIC values S.aureus” value in the series with S.aureus (ref [34]) was 27 to 54 µg/mL. For the same molecule, the “MIC values Fungus” value in the series with R. solani Khun is > 98 against R. solani Khun μg/ml.
For the molecule Galleria defensin, the “MIC values Fungus” value with Fungus (ref [38]) is 14.7 to 29.5 µg/mL.
Turning to Oh-defensin, the “MIC values E.coli” value with E.coli (ref [39]) is 1.3 µg/mL. In addition, the “MIC values S.aureus” value in the series with S.aureus (ref [39]) is 1.25 µg/mL. Besides, in the series with Fungus (ref [39]), the “MIC values Fungus” value is 1.3 µg/mL.
Consider Bactrocerin-1, for which the “MIC values E.coli” value with E.coli (ref [37]) was >232.5 µg/mL. Also, the “MIC values S.aureus” value in the series with S.aureus (ref [37]) is 6.5 µg/mL. The “MIC values Bacilius subtilis” value in the series on Bacilius subtilis (ref [37]) is 13.0 µg/mL. Further, the “MIC values Fungus” value in the series on Fungus (ref [37]) is 26.0 to 104.7 µg/mL.
